Measured values published in US20210139517A1, “BICYCLIC HETEROARYL COMPOUNDS AND USES THEREOF” (Revolution Medicines, Inc., priority 2019, published 2021).
pIC50, pKd: −log10 of the molar value.

Legend:
[1] = molecular target: T1, SOS1 nucleotide exchange of wild-type KRAS (SOS1 catalytic domain residues 564-1049; KRAS residue 1-169) (Homo sapiens, UniProt Q07889); experiment: Inhibition of SOS1 nucleotide exchange activity of KRAS (TR-FRET); type: biochemical; settings: SOS1 nucleotide exchange of wild-type KRAS; three replicates; four-parameter logistic fit; read-out: TR-FRET IC50
T1 sequence (Q07889 564-1049): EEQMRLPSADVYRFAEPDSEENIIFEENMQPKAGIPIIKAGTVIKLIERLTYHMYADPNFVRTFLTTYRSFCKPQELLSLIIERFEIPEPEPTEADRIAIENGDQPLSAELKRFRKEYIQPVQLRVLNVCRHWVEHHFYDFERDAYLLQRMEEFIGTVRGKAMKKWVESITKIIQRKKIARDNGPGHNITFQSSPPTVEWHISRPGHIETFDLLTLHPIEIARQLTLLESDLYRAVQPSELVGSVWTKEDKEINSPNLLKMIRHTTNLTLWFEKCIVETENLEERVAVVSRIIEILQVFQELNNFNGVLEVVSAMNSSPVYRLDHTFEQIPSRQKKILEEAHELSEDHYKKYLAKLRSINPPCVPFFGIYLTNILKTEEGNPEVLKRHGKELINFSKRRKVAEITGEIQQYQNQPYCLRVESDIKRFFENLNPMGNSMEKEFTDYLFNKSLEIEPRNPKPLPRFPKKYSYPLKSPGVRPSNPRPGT

[2] = tested on: SOS1 function in cells: cellular pERK in PC-9 cells (EGFR Ex19Del); experiment: pERK potency assay in PC-9 cells (AlphaLISA SureFire Ultra p-ERK1/2); type: cell-based; settings: Homo sapiens, PC-9, 1 h, 1 hour incubation
Description: The purpose of this assay is tomeasure the ability of test compounds to inhibit SOS1 function in cells. SOS1 activates RAS proteins by catalyzing the conversion of RAS-GDP to RAS-GTP in response to receptor tyrosine kinase activation. […] The procedure described below measures the level of cellular pERK in response to test compounds in PC-9 cells (EGFR Ex19Del).
PC-9 cells were grown and maintained using media and procedures recommended by the ATCC. On the day prior to compound addition, cells were plated in 384-well cell culture plates (40 μL/well) and grown overnight in a 37° C., 5% CO2 incubator. Test compounds were prepared in 10, 3-fold dilutions in DMSO, with a top concentration of 10 mM. On the day of the assay, 40 nL of test compound was added to each well of cell culture plate using an Echo550 liquid handler (LabCyte). Concentrations of test compound were tested in duplicate with highest test concentration being 10 μM. After compound addition, cells were incubated for 1 hour at 37° C., 5% CO2. Following incubation, culture medium was removed and cells were washed once with phosphate buffered saline.
Cellular pERK level was determined using the AlphaLISA SureFire Ultra p-ERK1/2 Assay Kit (PerkinElmer). Cells were lysed in 25 μL lysis buffer, with shaking at 600 RPM at room temperature for 15 minutes. Lysate (10 μL) was transferred to a 384-well Opti-plate (PerkinElmer) and 5 μL acceptor mix was added. The plate was centrifuged at 1000 RPM for 1 minute, and incubated in the dark for 2 hours. Following this incubation, 5 μL of donor mix was added, the plate was sealed and centrifuged at 1000 RPM for 1 minute, and the mixture was incubated for 2 hours at room temperature. Signal was read on an Envision plate reader (PerkinElmer) using standard AlphaLISA settings. Analysis of raw data was carried out in Excel (Microsoft) and Prism (GraphPad). Signal was plotted vs. the decadal logarithm of compound concentration, and IC50 was determined by fitting a 4-parameter sigmoidal concentration response model.

[3] = molecular target: T2, SOS1 catalytic domain (residues 564-1049) (Homo sapiens, UniProt Q07889); experiment: SOS1 SPR binding affinity assay (Biacore 8K); settings: avi-tagged SOS1 catalytic domain immobilized on streptavidin chip; equilibrium 1:1 binding fit; read-out: SOS1 SPR Equilibrium Kd
T2 sequence (Q07889 564-1049): T1 sequence (Q07889 564-1049)

SMILES	pIC50 [1]	pIC50 [2]	pKd [3]
CC(=O)N1CCC(c2cc3c(N[C@H](C)c4cc(C(F)(F)F)cc(N)c4F)ncnc3n(C)c2=O)CC1 [Example 15, 6-(1-acetyl-4-piperidyl)-4-[[(1R)-1-[3-amino-2-fluoro-5-(trifluoromethyl)phenyl]ethyl]amino]-8-methyl-pyrido[2,3-d]pyrimidin-7-one]	7.04	6.41	6.77
CC(=O)N1CCC(c2cc3c(N[C@H](C)c4cc(N)cc(C(F)(F)F)c4F)ncnc3n(C)c2=O)CC1 [Example 19, 6-(1-acetyl-4-piperidyl)-4-[[(1R)-1-[5-amino-2-fluoro-3-(trifluoromethyl)phenyl]ethyl]amino]-8-methyl-pyrido[2,3-d]pyrimidin-7-one]	7.91	7.31	7.49
C[C@@H](Nc1ncnc2c1cc(N1CCOCC1)c(=O)n2C)c1cc(N)cc(C(F)(F)F)c1 [Example 12, 4-{[(1R)-1-[3-amino-5-(trifluoromethyl)phenyl]ethyl]amino}-8-methyl-6-(morpholin-4-yl)-7H,8H-pyrido[2,3-d]pyrimidin-7-one]	7.87	7.00	8.10
C[C@@H](Nc1ncnc2c1cc(N1CCOCC1)c(=O)n2C)c1cccc(C(F)(F)F)c1 [Example 13, 8-methyl-6-(morpholin-4-yl)-4-{[(1R)-1-[3-(trifluoromethyl)phenyl]-ethyl]amino}-7H,8H-pyrido[2,3-d]pyrimidin-7-one]	7.53	6.49	7.55
Cc1nc(N[C@H](C)c2cccc(C(F)(F)CO)c2)c2cc(C3=CCOCC3)c(=O)n(C)c2n1 [Example 3, (R)-4-((1-(3-(1,1-difluoro-2-hydroxyethyl)phenyl)ethyl)amino)-6-(3,6-dihydro-2H-pyran-4-yl)-2,8-dimethylpyrido[2,3-d]pyrimidin-7(8H)-one]	7.46		7.66
C[C@@H](Nc1ncnc2c1cc(N1CCOCC1)c(=O)n2C)c1cccc(C(F)(F)CO)c1 [Example 2, (R)-4-((1-(3-(1,1-difluoro-2-hydroxyethyl)phenyl)ethyl)amino)-8-methyl-6-morpholinopyrido[2,3-d]pyrimidin-7(8H)-one]	7.89		8.13
Cc1nc(N[C@H](C)c2cccc(C(F)F)c2F)c2cc(C3CCN(C)CC3F)c(=O)n(C)c2n1 (stereo partly drawn) [Example 18, 4-[[(1R)-1-[3-(difluoromethyl)-2-fluoro-phenyl]ethyl]amino]-6-(3-fluoro-1-methyl-4-piperidyl)-2,8-dimethyl-pyrido[2,3-d]pyrimidin-7-one]	8.24	6.72	7.80
C[C@@H](Nc1ncnc2c1cc(C(=O)N1CC3CCC1CO3)c(=O)n2C)c1cccc(C(F)F)c1F (stereo partly shown) [Example 26-18]	7.10		6.82
C[C@@H](Nc1ncnc2c1cc(C1CCNCC1O)c(=O)n2C)c1cccc(C(F)F)c1F (stereo partly drawn) [Example 34, 4-(((R)-1-(3-(difluoromethyl)-2-fluorophenyl)ethyl)amino)-6-(3-hydroxypiperidin-4-yl)-8-methylpyrido[2,3-d]pyrimidin-7(8H)-one]	7.20		7.14
Cc1nc(N[C@H](C)c2cc(N)cc(C(F)(F)F)c2)c2cc(C3=CCOCC3)c(=O)n(C)c2n1 [Example 7, (R)-4-((1-(3-amino-5-(trifluoromethyl)phenyl)ethyl)amino)-6-(3,6-dihydro-2H-pyran-4-yl)-2,8-dimethylpyrido[2,3-d]pyrimidin-7(8H)-one]	6.81		6.93
C[C@@H](Nc1ncnc2c1cc(-c1ccnnc1)c(=O)n2C)c1cccc(C(F)F)c1F [Example 21, (R)-4-((1-(3-(difluoromethyl)-2-fluorophenyl)ethyl)amino)-8-methyl-6-(pyridazin-4-yl)pyrido[2,3-d]pyrimidin-7(8H)-one]	7.74	6.87	7.49
C[C@@H](Nc1ncnc2c1cc(C1=CCS(=N)(=O)CC1)c(=O)n2C)c1cccc(C(F)F)c1F (stereo partly drawn) [Example 23, 4-(((R)-1-(3-(difluoromethyl)-2-fluorophenyl)ethyl)amino)-6-(1-imino-1-oxido-1,2,3,6-tetrahydro-1λ^6-thiopyran-4-yl)-8-methylpyrido[2,3-d]pyrimidin-7(8H)-one]	7.68		7.70
Cc1nc(N[C@H](C)c2cccc(C(F)F)c2F)c2cc(CN3CCOCC3)c(=O)n(C)c2n1 [Example 27, 4-{[(1R)-1-[3-(difluoromethyl)-2-fluorophenyl]ethyl]amino}-2,8-dimethyl-6-[(morpholin-4-yl)meth-yl]-7H,8H-pyrido[2,3-d]pyrimidin-7-one]	6.72		6.26
C[C@@H](Nc1ncnc2c1cc(C1CC3(C1)CS(=O)(=O)C3)c(=O)n2C)c1cccc(C(F)F)c1F [Example 33, 6-(4-{[(1R)-1-[3-(difluoromethyl)-2-fluorophenyl]ethyl]amino}-8-methyl-7-oxo-7H,8H-pyrido[2,3-d]pyrimi-din-6-yl)-2λ^6-thiaspiro[3.3]heptane-2,2-dione]	7.53		7.48
